Source: patent publication US6689938B2, “Method for treatment of insulin resistance in obesity and diabetes” (Oklajoma Medical Research Foundation, priority 2000, dated 2004)

Columns and labels:
Type in all cases: in vivo, mouse
[1] = tested on: POMC null mutants and wildtype littermates; assay: Corticosterone supplementation in drinking water, blood glucose levels; settings: 25 μg per mL in drinking water for 3½ months, starting at 3 months of age; POMC null mutants and wildtype females
Procedure: (§1) In the experiment illustrated in FIG. 7, POMC null mutants and wildtype littermate females, 5 per group, received drinking water containing corticosterone (25 μg per mL) or nothing in addition for 3½ months, starting at 3 months of age. Blood glucose levels were determined before and after corticosterone supplementation.

[2] = tested on: POMC null mutants and wildtype mice; assay: Insulin tolerance test after corticosterone supplementation
Procedure: In this experiment, illustrated in FIG. 6, food was taken away in the morning from 5 month old females, 5 per group. 6 hrs later, the mice were injected with insulin (Human insulin, 1 Unit/kg, i.p.). Blood was collected at times indicated and glucose measured using a Glucometer.
as §1

[3] = tested on: POMC mutants and wildtype mice; assay: Insulin tolerance test after MSH or ACTH treatment; settings: for glucoregulatory response / ability of POMC null mice: peripheral administration to POMC null mice
Procedure: In this experiment, illustrated in FIG. 9, glucose was measured in 4-6 month old female mice, wildtypes and POMC mutants, 5 mice per group. Mice were fasted for 5 hours. Each genotype (wildtype +/+and mutant −/−) received either: (1) 0.1 mL saline i.p.; (2) 0.1 mL saline containing 1 μg α-MSH i.p.; or (3) 0.1 mL saline containing 1 μg ACTH s.c.
One hour later, human insulin (0.5 mIU/g body weight) was injected intraperitoneally in all mice, and glucose was measured at the indicated intervals in blood collected from a tail nick.

Row | Compound | induction of diabetes (blood glucose levels before and after supplementation) [1] | counterregulatory response in insulin tolerance test ([2]; POMC mutants versus wildtype mice) | blood glucose levels in insulin tolerance test ([2]; both wildtypes and mutants, versus untreated group) | blood glucose levels in insulin tolerance test, treated POMC mutants versus wildtype littermates ([3]; 1 μg α-MSH i.p. one hour before human insulin 0.5 mIU/g i.p., 4-6 month old females fasted 5 hours) | insulin resistance in the POMC null mouse ([3]; administration to the POMC null mouse) | glucoregulatory response / ability of POMC null mice [3] | glucoregulatory response / ability of POMC null mice ([3]; listed as melanocortin stimulating hormone (MSH))
1 | C[C@]12C[C@H](O)[C@H]3[C@@H](CCC4=CC(=O)CC[C@@]43C)[C@@H]1CC[C@@H]2C(=O)CO [corticosterone] | does not induce diabetes | lag behind the wildtype mice in their counterregulatory response in the same manner as without corticosterone supplementation | do not fall to as low a level as in the untreated group | – | – | – | –
2 | Ac-Ser-Tyr-Ser-Met-Glu-His-Phe-Arg-Trp-Gly-Lys-Pro-Val-NH2 [α-MSH] | – | – | – | not significantly different | induces insulin-resistance | restored the glucoregulatory ability | nearly normalizes the glucoregulatory response
